Assay results as given in patent US12655090B2, “Cyclopropylamide compounds against parasites in fish” (Intervet Inc., priority 2021, dated 2026).
pEC50: −log10 of the molar value.

Columns and labels:
[1] = system: Copepodids (juvenile sea lice stage of Lepeophtheirus salmonis); test: Juvenile sea lice contact assay; conditions: approximately 24 hours continuous exposure in seawater, read-out: Sea lice inhibition (% of dead+damaged copepodids); for inhibition at 0.01 µM: test concentration 10 nM; for inhibition at 0.1 µM: test concentration 100 nM; for inhibition at 10 pM: test concentration 0.01 nM
Method: Copepodids (juvenile sea lice stage of Lepeophtheirus salmonis) were exposed to seawater spiked with declining concentrations of a test compound (dissolved in a DMSO sea-water mixture). Sea lice inhibition (% of dead+damaged copepodids) was assessed after approximately 24 hours of continuous exposure. The vitality of used parasites was confirmed in a negative (solvent) control group.

[2] = system: Mobile stages of sea lice (pre-adults, adults of Lepeophtheirus salmonis); test: Adult sea lice contact assay; conditions: assessed after approximately 1 and 24 hours of continuous exposure, read-out: EC50 (sea lice inhibition, dead+damaged sea lice)
Method: Mobile stages of sea lice (i.e., pre-adults, adults of Lepeophtheirus salmonis) were exposed to seawater spiked with declining concentrations of a test compound (dissolved in a PEG sea-water mixture). Sea lice inhibition (% of dead+damaged sea lice) was assessed after approximately 1 and 24 hours of continuous exposure in comparison to a negative (solvent) control group.

## O=C(NCC(F)(F)F)c1cc(NC(=O)C2C(c3cc(Cl)cc(Cl)c3)C2(Cl)Cl)ccc1Cl (racemic) [Compound 1500]
[1]
  inhibition at 0.01 µM: ≥ 80%

## N#CC1(NC(=O)c2cc(NC(=O)C3C(c4ccc(Cl)c(Cl)c4)C3(Cl)Cl)ccc2Cl)CC1 (racemic) [Compound 1501]
[1]
  inhibition at 0.01 µM: ≥ 80%

## CC(C)CNC(=O)c1cc(NC(=O)C2C(c3cc(Cl)cc(Cl)c3)C2(Cl)Cl)ccc1Cl (racemic) [Compound 1502]
[1]
  inhibition at 0.01 µM: 100%

## O=C(NC1CC(F)(F)C1)c1cc(NC(=O)C2C(c3cccc(C(F)(F)F)c3)C2(Cl)Cl)ccc1Cl (racemic) [Compound 1508]
[1]
  inhibition at 0.01 µM: 100%
[2]
  pEC50: 8.00 to 9.00

## CCNC(=O)c1cc(NC(=O)C2C(c3cc(Cl)cc(Cl)c3)C2(Cl)Cl)ccc1Cl (racemic) [Compound 1509]
[1]
  inhibition at 0.01 µM: 100%

## O=C(NC1COC1)c1cc(NC(=O)C2C(c3cc(Cl)cc(Cl)c3)C2(Cl)Cl)ccc1Cl (racemic) [Compound 1510]
[1]
  inhibition at 0.01 µM: 100%

## Cc1cc(Cl)cc(C2C(C(=O)Nc3ccc(Cl)c(C(=O)NC4CC(F)(F)C4)c3)C2(Cl)Cl)c1 (racemic) [Compound 1513]
[1]
  inhibition at 0.01 µM: 100%

## Cc1cc(C2C(C(=O)Nc3ccc(Cl)c(C(=O)NC4(C#N)CC4)c3)C2(Cl)Cl)cc(Cl)c1Cl (racemic) [Compound 1514]
[1]
  inhibition at 0.1 µM: 100%
[2]
  pEC50: 7.60 to 8.00

## N#CC1(NC(=O)c2cc(NC(=O)C3C(c4cc(Cl)cc(Cl)c4)C3(Cl)Cl)ccc2Cl)CC1 (racemic) [Compound 1515]
[1]
  inhibition at 0.01 µM: 100%

## CC1(NC(=O)c2cc(NC(=O)C3C(c4cc(Cl)cc(Cl)c4)C3(Cl)Cl)ccc2Cl)CC1 (racemic) [Compound 1523]
[1]; test concentration 1 nM
  inhibition at 0.001 µM: 80%

## O=C(NC1CCOC1=O)c1cc(NC(=O)C2C(c3cc(Cl)cc(Cl)c3)C2(Cl)Cl)ccc1Cl (racemic) [Compound 1526]
[1]
  inhibition at 0.01 µM: 100%

## N#Cc1cc(Cl)cc(C2C(C(=O)Nc3ccc(Cl)c(C(=O)NC4(C#N)CC4)c3)C2(Cl)Cl)c1 (racemic) [Compound 1532]
[1]
  inhibition at 0.1 µM: 100%
[2]
  pEC50: 7.60 to 8.00

## O=C(NCCF)c1cc(NC(=O)C2C(c3ccc(F)c(Cl)c3)C2(Cl)Cl)ccc1Cl (racemic) [Compound 1536]
[1]
  inhibition at 10 pM: 100%

## O=C(NCC(F)(F)F)c1cc(NC(=O)C2C(c3ccc(F)c(Cl)c3)C2(Cl)Cl)ccc1Cl (racemic) [Compound 1537]
[1]
  inhibition at 0.01 µM: 100%

## O=C(NCCC(F)(F)F)c1cc(NC(=O)C2C(c3ccc(F)c(Cl)c3)C2(Cl)Cl)ccc1Cl (racemic) [Compound 1538]
[1]
  inhibition at 10 pM: 100%

## O=C(NCCF)c1cc(NC(=O)C2C(c3cc(Cl)cc(Cl)c3)C2(Cl)Cl)cc(Cl)c1Cl (racemic) [Compound 1539]
[1]
  inhibition at 0.01 µM: 100%

## N#CC1(NC(=O)c2cc(NC(=O)C3C(c4cc(F)c(Br)c(F)c4)C3(Cl)Cl)ccc2Cl)CC1 (racemic) [Compound 1544]
[1]
  inhibition at 0.1 µM: 100%

## N#CC1(NC(=O)c2cc(NC(=O)C3C(c4cc(Cl)cc(C(F)F)c4)C3(Cl)Cl)ccc2Cl)CC1 (racemic) [Compound 1545]
[1]
  inhibition at 0.1 µM: 100%
[2]
  pEC50: 7.60 to 8.00

## N#CC1(NC(=O)c2cc(NC(=O)C3C(c4ccc(Cl)c(C(F)F)c4)C3(Cl)Cl)ccc2Cl)CC1 (racemic) [Compound 1546]
[1]
  inhibition at 0.1 µM: 100%
[2]
  pEC50: 7.60 to 8.00

## N#CC1(NC(=O)c2cc(NC(=O)C3C(c4cc(F)cc(C(F)F)c4)C3(Cl)Cl)ccc2Cl)CC1 (racemic) [Compound 1547]
[1]
  inhibition at 0.1 µM: 100%
[2]
  pEC50: 8.00 to 9.00

## N#CC1(NC(=O)c2cc(NC(=O)C3C(c4ccc(C(F)F)c(Cl)c4)C3(Cl)Cl)ccc2Cl)CC1 (racemic) [Compound 1548]
[2]
  pEC50: 7.60 to 8.00

## N#CC1(NC(=O)c2cc(NC(=O)C3C(c4cccc(C(F)F)c4)C3(Cl)Cl)ccc2Cl)CC1 (racemic) [Compound 1549]
[1]
  inhibition at 0.1 µM: 100%

## O=C(NCC(F)(F)F)c1cc(NC(=O)C2C(c3cc(F)c(F)c(F)c3)C2(Cl)Cl)ccc1Cl (racemic) [Compound 1551]
[1]
  inhibition at 10 pM: 100%

## O=C(NCCC(F)(F)F)c1cc(NC(=O)C2C(c3cc(Cl)cc(Cl)c3)C2(Cl)Cl)cc(Cl)c1Cl (racemic) [Compound 1552]
[1]
  inhibition at 0.01 µM: ≥ 80%

## CCNC(=O)c1cc(NC(=O)C2C(c3cc(Cl)cc(Cl)c3)C2(Cl)Cl)cc(Cl)c1Cl (racemic) [Compound 1553]
[1]
  inhibition at 0.01 µM: 100%

## O=C(NCC(F)(F)F)c1cc(NC(=O)C2C(c3ccc(F)c(Cl)c3)C2(Cl)Cl)cc(F)c1F (racemic) [Compound 1554]
[1]
  inhibition at 0.01 µM: ≥ 80%
